Data on 20 molecules can be found in patent US10059701B2 (Merck Patent GmbH, priority 2015, dated 2018).

Some results are limits rather than exact numbers.

The target of assay [1] is T1, IRAK1 (Homo sapiens, UniProt P51617).
T1 construct: His-TEV-IRAK1 (194-712); His (N); TEV cleavage site (N)
Briefly: IRAK1 enzymatic assay (ADP-Glo luminescence). Type of assay: biochemical. Particulars: purified human recombinant His-TEV-IRAK1 (194-712). The procedure:
IRAK1 is a human purified recombinant enzyme (His-TEV-IRAK1 (194-712))
In this assay, IRAK1 hydrolyses ATP and autophosphorylates. Measurement of IRAK-1 inhibition is performed in 384-well format based on luminescence assay (ADP-Glo™ Kinase Assay from Promega). Purified human recombinant IRAK1 (0.3 μg/ml) and serial diluted compounds in DMSO (range of concentration from 10 μM to 0.5 nM) or controls (1% DMSO) are incubated for 15 minutes at RT in assay buffer containing 50 mM Hepes pH 7.0, Fatty acid-free BSA 0.1%, Dithiothreitol (DTT) 2 mM, MgCl2 10 mM, EGTA 0.5 mM, Triton X-100 0.01%. The kinase reaction is then initiated by the addition of ATP […] After 2 hours of incubation at RT, the reaction is stopped and the unconsumed ATP depleted by the addition of ADP-Glo™ Reagent according to supplier instructions. After 40 minutes of incubation at RT, the Kinase Detection Reagent is then added to the assay plate according to supplier instructions. After 20 minutes of incubation at RT, the luminescence signal is measured with a luminometer (PerkinElmer Envision or equivalent reader).

Assay [2] has as its target T2, IRAK4 (Homo sapiens, UniProt Q9NWZ3).
T2 construct: His-TEV-IRAK4 (1-460); His (N); TEV cleavage site (N)
T2 sequence (Q9NWZ3 1-460): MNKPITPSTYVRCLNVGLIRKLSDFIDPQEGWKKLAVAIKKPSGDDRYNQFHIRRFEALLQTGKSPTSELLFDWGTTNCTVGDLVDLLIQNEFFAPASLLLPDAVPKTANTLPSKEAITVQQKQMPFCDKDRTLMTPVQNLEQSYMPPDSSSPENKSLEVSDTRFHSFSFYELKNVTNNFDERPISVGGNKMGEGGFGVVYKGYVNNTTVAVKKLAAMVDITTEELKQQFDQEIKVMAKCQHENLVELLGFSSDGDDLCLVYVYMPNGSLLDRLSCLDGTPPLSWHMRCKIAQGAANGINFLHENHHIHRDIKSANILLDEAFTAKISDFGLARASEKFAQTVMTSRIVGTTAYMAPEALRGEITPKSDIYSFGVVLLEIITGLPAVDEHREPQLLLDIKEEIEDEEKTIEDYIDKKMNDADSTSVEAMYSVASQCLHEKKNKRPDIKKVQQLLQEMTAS
Kind of assay: IRAK4 enzymatic assay (ADP-Glo luminescence). The format is biochemical. Particulars: purified human recombinant His-TEV-IRAK4 (1-460), ATP 2 μM. The procedure:
IRAK4 is a human purified recombinant enzyme (His-TEV-IRAK4 (1-460)).
In this assay, IRAK4 hydrolyses ATP, autophosphorylates and phosphorylates a Serine/Threonine generic peptidic substrate (STK: 61ST1BLC from CisBio International). Measurement of IRAK-4 inhibition is performed in 384-well format based on a luminescence assay (ADP-Glo™ Kinase Assay from Promega). Purified human recombinant IRAK4 (0.3 μg/ml) and serial diluted compounds in DMSO (range of concentration from 10 μM to 0.5 nM) or controls (1% DMSO) are incubated for 15 minutes at RT in assay buffer containing 50 mM Hepes pH 7.0, Fatty acid-free BSA 0.1%, Dithiothreitol (DTT) 2 mM, MgCl2 10 mM, EGTA 0.5 mM, Triton X-100 0.01%, MnCl2 5 mM. The kinase reaction is then initiated by the addition of ATP (2 μM) and the peptidic substrate STK1-biotin peptide (300 nM). After 2 hours of incubation at RT, the reaction is stopped and the unconsumed ATP depleted by the addition of ADP-Glo™ Reagent according to supplier instructions. After 40 minutes of incubation at RT, the Kinase Detection Reagent is then added to the assay plate according to supplier instructions. After 20 minutes of incubation at RT, the luminescence signal is measured with a plate-reading luminometer (PerkinElmer Envision or equivalent reader).

T1 sequence (P51617 194-712): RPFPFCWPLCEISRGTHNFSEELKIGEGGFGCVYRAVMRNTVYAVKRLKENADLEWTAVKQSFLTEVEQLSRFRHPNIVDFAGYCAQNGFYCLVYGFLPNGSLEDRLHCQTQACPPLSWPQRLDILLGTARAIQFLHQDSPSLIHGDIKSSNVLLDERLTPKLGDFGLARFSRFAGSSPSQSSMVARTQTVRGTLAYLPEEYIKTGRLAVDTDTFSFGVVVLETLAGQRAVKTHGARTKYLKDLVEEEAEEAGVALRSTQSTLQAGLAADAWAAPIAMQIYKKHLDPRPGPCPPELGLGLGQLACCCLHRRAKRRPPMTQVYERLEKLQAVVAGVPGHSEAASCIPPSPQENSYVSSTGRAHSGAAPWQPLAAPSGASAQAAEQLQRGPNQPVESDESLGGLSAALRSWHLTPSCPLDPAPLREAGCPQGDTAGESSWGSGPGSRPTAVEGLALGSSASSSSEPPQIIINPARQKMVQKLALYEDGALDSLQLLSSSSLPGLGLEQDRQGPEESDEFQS

For the molecule `O=C(/N=c1\[nH]c2cc(-n3ccccc3=O)ccc2n1CCCO)c1cccc(C(F)(F)F)c1` [Example 193, (E)-N-(1-(3-hydroxypropyl)-5-(2-oxopyridin-1(2H)-yl)-1H-benzo[d]imidazol-2(3H)-ylidene)-3-(trifluoromethyl)benzamide], the half-maximal inhibitory concentration (IC50) in assay [1] was 100 to 1000 nM; in assay [2] it was at most 100 nM.

In the case of `O=C(/N=c1\[nH]c2cc(N3CCCOC3=O)ccc2n1CCC(F)(F)F)c1cccc(C(F)(F)F)c1` [Compound 176, (E)-N-(5-(2-oxo-1,3-oxazinan-3-yl)-1-(3,3,3-trifluoropropyl)-1H-benzo[d]imidazol-2(3H)-ylidene)-3-(trifluoromethyl)benzamide], the values for the 50% inhibitory concentration (IC50) in assay [1] and in assay [2] were 100 to 1000 nM and at most 100 nM, respectively.

Regarding `O=C(/N=c1\[nH]c2cc(N3CCCCS3(=O)=O)ccc2n1CCCO)c1cccc(C(F)(F)F)c1` [Compound 190, (E)-N-(5-(1,1-dioxido-1,2-thiazinan-2-yl)-1-(3-hydroxypropyl)-1H-benzo[d]imidazol-2(3H)-ylidene)-3-(trifluoromethyl)benzamide], the IC50 in assay [1] is 100 to 1000 nM; in assay [2] it was at most 100 nM.

For `O=C(/N=c1\[nH]c2cc(N3CCOCC3=O)ccc2n1CCCO)c1cccc(OC(F)F)c1` [Compound 6, (E)-3-(difluoromethoxy)-N-(1-(3-hydroxypropyl)-5-(3-oxomorpholino)-1H-benzo[d]imidazol-2(3H)-ylidene)benzamide], the 50% inhibitory concentration (IC50) in assay [1] was 100 to 1000 nM; in assay [2], at most 100 nM.

Consider `COc1ccc(C(=O)/N=c2\[nH]c3cc(N4CCOCC4=O)ccc3n2CCCO)cc1C#N` [Compound 38, (E)-3-cyano-N-(1-(3-hydroxypropyl)-5-(3-oxomorpholino)-1H-benzo[d]imidazol-2(3H)-ylidene)-4-methoxybenzamide], for which the IC50 in assay [1] and in assay [2] was over 1000 nM throughout.

With `CNS(=O)(=O)c1cccc(C(=O)/N=c2\[nH]c3cc(N4CCOCC4=O)ccc3n2CCCO)c1` [Compound 97, (E)-N-(1-(3-hydroxypropyl)-5-(3-oxomorpholino)-1H-benzo[d]imidazol-2(3H)-ylidene)-3-(N-methylsulfamoyl)benzamide], the half-inhibitory concentration (IC50) in assay [1] and in assay [2] was at most 100 nM throughout.

Regarding `O=C(/N=c1\[nH]c2cc(N3CC4CC(N4)C3=O)ccc2n1CCCO)c1cccc(C(F)(F)F)c1` (stereo not shown) [Example 216, (E)-N-(1-(3-hydroxypropyl)-5-(2-oxo-3,6-diazabicyclo[3.1.1]heptan-3-yl)-1H-benzo[d]imidazol-2(3H)-ylidene)-3-(trifluoromethyl)benzamide], the results for the IC50 in assay [1] and in assay [2] were 100 to 1000 nM and at most 100 nM, respectively.

On to `O=C(/N=c1\[nH]c2cc(N3CCCNC3=O)ccc2n1CCCO)c1cccc(C(F)(F)F)c1` [Compound 1, (E)-N-(1-(3-hydroxypropyl)-5-(2-oxotetrahydropyrimidin-1(2H)-yl)-1H-benzo[d]imidazol-2(3H)-ylidene)-3-(trifluoromethyl)benzamide], for which the 50% inhibitory concentration (IC50) in assay [1] was 100 to 1000 nM; in assay [2], at most 100 nM.

In the case of `O=C(/N=c1\[nH]c2cc(-n3ncccc3=O)ccc2n1CCCO)c1cccc(C(F)(F)F)c1` [Example 201, (E)-N-(1-(3-hydroxypropyl)-5-(6-oxopyridazin-1(6H)-yl)-1H-benzo[d]imidazol-2(3H)-ylidene)-3-(trifluoromethyl)benzamide], the half-inhibitory concentration (IC50) in assay [1] and in assay [2] was at most 100 nM in each case.

Regarding `O=C(/N=c1\[nH]c2cc(N3CCOCC3=O)c(Br)cc2n1CCCO)c1cccc(C(F)F)c1` [Compound 49, (E)-N-(6-bromo-1-(3-hydroxypropyl)-5-(3-oxomorpholino)-1H-benzo[d]imidazol-2(3H)-ylidene)-3-(difluoromethyl)benzamide], the IC50 in assay [1] is 100 to 1000 nM; in assay [2] it was at most 100 nM.

Regarding `O=C(/N=c1\[nH]c2cc(N3CCN(CC4CC4)CC3=O)ccc2n1CCCO)c1cccc(C(F)F)c1` [Compound 112, (E)-N-(5-(4-(cyclopropylmethyl)-2-oxopiperazin-1-yl)-1-(3-hydroxypropyl)-1H-benzo[d]imidazol-2(3H)-ylidene)-3-(difluoromethyl)benzamide], the concentration for half-maximal inhibition (IC50) in assay [1] and in assay [2] was at most 100 nM throughout.

Regarding `O=C(/N=c1\[nH]c2cc(N3CCOCC3=O)ccc2n1CCCO)c1cccc(C(F)(F)F)c1` [Compound 86, (E)-N-(1-(3-hydroxypropyl)-5-(3-oxomorpholino)-1H-benzo[d]imidazol-2(3H)-ylidene)-3-(trifluoromethyl)benzamide], the IC50 in assay [1] was 100 to 1000 nM; in assay [2], at most 100 nM.

Consider `CSCCn1/c(=N/C(=O)c2cccc(C(F)F)c2)[nH]c2cc(N3CCOCC3=O)ccc21` [Compound 63, (E)-3-(difluoromethyl)-N-(1-(2-(methylthio)ethyl)-5-(3-oxomorpholino)-1H-benzo[d]imidazol-2(3H)-ylidene)benzamide], for which the figures for the IC50 in assay [1] and in assay [2] were 100 to 1000 nM and at most 100 nM, respectively.

With `O=C(/N=c1\[nH]c2cc(N3CCOCC3=O)ccc2n1CC1(CO)CC1)c1cc(F)cc(C(F)(F)F)c1` [Compound 25, (E)-3-fluoro-N-(1-((1-(hydroxymethyl)cyclopropyl)methyl)-5-(3-oxomorpholino)-1H-benzo[d]imidazol-2(3H)-ylidene)-5-(trifluoromethyl)benzamide], the IC50 in assay [1] is 100 to 1000 nM; in assay [2], at most 100 nM.

On to `O=C(/N=c1\[nH]c2cc(N3CCOCC3=O)ccc2n1[C@H]1CC[C@H](O)CC1)c1cccc(C(F)F)c1` [Compound 28, trans-(E)-3-(difluoromethyl)-N-(1-(4-hydroxycyclohexyl)-5-(3-oxomorpholino)-1H-benzo[d]imidazol-2(3H)-ylidene)benzamide], for which the IC50 in assay [1] and in assay [2] was at most 100 nM throughout.

For the molecule `CCC(CCO)n1/c(=N/C(=O)c2cccc(C(F)(F)F)c2)[nH]c2cc(N3CCOCC3=O)ccc21` (racemic) [Compound 124, rac-(E)-N-(1-(1-hydroxypentan-3-yl)-5-(3-oxomorpholino)-1H-benzo[d]imidazol-2(3H)-ylidene)-3-(trifluoromethyl)benzamide], the figures for the 50% inhibitory concentration (IC50) in assay [1] and in assay [2] were over 1000 nM and 100 to 1000 nM, respectively.

Take `C[C@@H](CCO)n1/c(=N/C(=O)c2cccc(C(F)F)c2)[nH]c2cc(N3CCOCC3=O)ccc21` [Compound 16, (S,E)-3-(difluoromethyl)-N-(1-(4-hydroxybutan-2-yl)-5-(3-oxomorpholino)-1H-benzo[d]imidazol-2(3H)-ylidene)benzamide]: the values for the IC50 in assay [1] and in assay [2] were 100 to 1000 nM and at most 100 nM, respectively.

In the case of `CC(C)Oc1cc2c(cc1N1CCOCC1=O)[nH]/c(=N\C(=O)c1cccc(C(F)F)c1)n2CCCO` [Compound 137, (E)-3-(difluoromethyl)-N-(1-(3-hydroxypropyl)-6-isopropoxy-5-(3-oxomorpholino)-1H-benzo[d]imidazol-2(3H)-ylidene)benzamide], the half-inhibitory concentration (IC50) in assay [1] and in assay [2] was at most 100 nM in each case.

Take `O=C(/N=c1\[nH]c2cc(N3CCCOC3=O)ccc2n1CC(F)(F)C(F)(F)F)c1cccc(C(F)(F)F)c1` [Compound 177, (E)-N-(5-(2-oxo-1,3-oxazinan-3-yl)-1-(2,2,3,3,3-pentafluoropropyl)-1H-benzo[d]imidazol-2(3H)-ylidene)-3-(trifluoromethyl)benzamide]: the results for the IC50 in assay [1] and in assay [2] were over 1000 nM and at most 100 nM, respectively.

As to `O=C(/N=c1\[nH]c2cc(N3CCOCC3=O)ccc2n1CCCO)c1cccc(C(=O)N2CCOCC2)c1` [Compound 36, (E)-N-(1-(3-hydroxypropyl)-5-(3-oxomorpholino)-1H-benzo[d]imidazol-2(3H)-ylidene)-3-(morpholine-4-carbonyl)benzamide], the half-maximal inhibitory concentration (IC50) in assay [1] was 100 to 1000 nM; in assay [2] it was over 1000 nM.
